Activity calls are given as the source filed them. No cut-off for these calls is given here.
How the values were obtained:
Leishmania donovani [1] = test: Antileishmanial activity against intracellular amastigote form of Leishmania donovani; assay type: functional, organism-based
Leishmania major = test: Antileishmanial activity against Leishmania major; assay type: functional, organism-based
Trypanosoma cruzi [2] = test: Trypanocidal activity against epimastigote Trypanosoma cruzi IRHOD/CO/2008/SN3; assay type: functional, organism-based
Trypanosoma cruzi [3] = test: Trypanocidal activity against intracellular amastigote form of Trypanosoma cruzi IRHOD/CO/2008/SN3 in african green monkey Vero cells; assay type: functional, organism-based; conditions: IRHOD/CO/2008/SN3, Vero
Trypanosoma cruzi [4] = test: Antiparasitic activity against trypomastigote form of Trypanosoma cruzi IRHOD/CO/2008/SN3 infected in BALB/c mouse acute chagas disease model assessed as parasite reduction in blood; assay type: functional, organism-based; conditions: IRHOD/CO/2008/SN3, Blood
Vero = test: Cytotoxicity against african green monkey Vero cells after 72 hrs; assay type: cell-based; conditions: Chlorocebus sabaeus
[5] = Selectivity index, ratio of IC50 for african green monkey Vero cells to IC50 for epimastigote Trypanosoma cruzi IRHOD/CO/2008/SN3; assay type: toxicity, cell-based; conditions: read-out: Ratio IC50
[6] = Selectivity index, ratio of IC50 for african green monkey Vero cells to IC50 for intracellular amastigote form of Trypanosoma cruzi IRHOD/CO/2008/SN3; assay type: toxicity, cell-based; conditions: read-out: Ratio IC50
[7] = Selectivity index, ratio of IC50 for african green monkey Vero cells to IC50 for trypomastigote form of Trypanosoma cruzi IRHOD/CO/2008/SN3; assay type: toxicity, cell-based; conditions: read-out: Ratio IC50
Trypanosoma cruzi [8] = test: Increase in succinate catabolites in epimastigote Trypanosoma cruzi at IC25 concentration after 96 hrs; assay type: functional
Trypanosoma cruzi [9] = test: Increase in pyruvate catabolites in epimastigote Trypanosoma cruzi at IC25 concentration after 96 hrs; assay type: functional
Trypanosoma cruzi [10] = test: Increase in acetate catabolites in epimastigote Trypanosoma cruzi at IC25 concentration after 96 hrs; assay type: functional
Trypanosoma cruzi [11] = test: Increase in L-alanine catabolites in epimastigote Trypanosoma cruzi at IC25 concentration after 96 hrs; assay type: functional
Trypanosoma cruzi [12] = test: Increase in D-lactate catabolites in epimastigote Trypanosoma cruzi at IC25 concentration after 96 hrs; assay type: functional
Trypanosoma cruzi [13] = test: Trypanocidal activity against epimastigote Trypanosoma cruzi IRHOD/CO/2008/SN3 infected in african green monkey Vero cells assessed as decrease in average number of amastigotes per infected cell at IC25 concentration on day 10; assay type: functional; set-up: scale not given: the % may be the effect or the level left
Trypanosoma cruzi [14] = test: Antiparasitic activity against trypomastigote form of Trypanosoma cruzi IRHOD/CO/2008/SN3 infected in BALB/c mouse acute chagas disease model assessed as parasite reduction in blood at 25 mg/kg, ip measured on day 40 post infection; assay type: functional; conditions: IRHOD/CO/2008/SN3, Blood, 960 h, route intraperitoneal
Trypanosoma cruzi [15] = test: (§1) Antiparasitic activity against trypomastigote form of Trypanosoma cruzi IRHOD/CO/2008/SN3 infected in BALB/c mouse acute chagas disease model assessed as parasitemia reactivation at 25 mg/kg, ip after 60 days immunosuppressed with cyclophosphamide monohydrate measured up to day 120 post infection (reference value: 80.3%); assay type: functional; conditions: route intraperitoneal
Trypanosoma cruzi [16] = test: as §1, with “heart free from parasite” for “parasitemia reactivation”, “by PCR analysis” for “(reference value: 80.3%)”; assay type: functional; conditions: route intraperitoneal
Mus musculus [17] = test: Toxicity in Trypanosoma cruzi IRHOD/CO/2008/SN3 infected in BALB/c mouse acute chagas disease model assessed as kidney marker urea level at 25 mg/kg, ip after 60 days immunosuppressed with cyclophosphamide monohydrate measured up to day 120 post infection […]; assay type: organism-based; set-up: dose 25 mg/kg, route intraperitoneal; conditions: in vivo, 1440 h
Mus musculus [18] = test: Toxicity in Trypanosoma cruzi IRHOD/CO/2008/SN3 infected in BALB/c mouse acute chagas disease model assessed as heart marker LDH level at 25 mg/kg, ip after 60 days immunosuppressed with cyclophosphamide monohydrate measured up to day 120 post infection […]; assay type: organism-based; set-up: dose 25 mg/kg, route intraperitoneal; conditions: in vivo, 1440 h
Mus musculus [19] = test: Toxicity in Trypanosoma cruzi IRHOD/CO/2008/SN3 infected in BALB/c mouse acute chagas disease model assessed as liver marker AST/GOT level at 25 mg/kg, ip after 60 days immunosuppressed with cyclophosphamide monohydrate measured up to day 120 post infection […]; assay type: organism-based; set-up: dose 25 mg/kg, route intraperitoneal; conditions: in vivo, 1440 h
Mus musculus [20] = test: Toxicity in Trypanosoma cruzi IRHOD/CO/2008/SN3 infected in BALB/c mouse acute chagas disease model assessed as liver marker ALT/GPT level at 25 mg/kg, ip after 60 days immunosuppressed with cyclophosphamide monohydrate measured up to day 120 post infection […]; assay type: organism-based; set-up: dose 25 mg/kg, route intraperitoneal; conditions: in vivo, 1440 h
Mus musculus [21] = test: Toxicity in Trypanosoma cruzi IRHOD/CO/2008/SN3 infected in BALB/c mouse acute chagas disease model assessed as total bilirubuin level at 25 mg/kg, ip after 60 days immunosuppressed with cyclophosphamide monohydrate measured up to day 120 post infection […]; assay type: organism-based; set-up: dose 25 mg/kg, route intraperitoneal; conditions: in vivo, 1440 h
Mus musculus [22] = test: Toxicity in Trypanosoma cruzi IRHOD/CO/2008/SN3 infected in BALB/c mouse acute chagas disease model assessed as alkalyne phosphatase level at 25 mg/kg, ip after 60 days immunosuppressed with cyclophosphamide monohydrate measured up to day 120 post infection […]; assay type: organism-based; set-up: dose 25 mg/kg, route intraperitoneal; conditions: in vivo, 1440 h
Trypanosoma cruzi [23] = test: Trypanocidal activity against epimastigote Trypanosoma cruzi IRHOD/CO/2008/SN3 assessed as morphological disturbance at IC25 concentration; assay type: functional, organism-based
[24] = molecular target: Superoxide dismutase [Cu-Zn] (Homo sapiens, UniProt P00441); test: Inhibition of CuZn-SOD in human erythrocytes; assay type: cell-based
Sequence of Superoxide dismutase [Cu-Zn] (P00441 whole entry): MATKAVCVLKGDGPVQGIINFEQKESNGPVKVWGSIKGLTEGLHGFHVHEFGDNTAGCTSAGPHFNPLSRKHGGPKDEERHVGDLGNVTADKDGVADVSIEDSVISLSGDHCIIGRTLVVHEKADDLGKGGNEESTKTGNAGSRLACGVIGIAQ

[25] = Inhibition of Fe-SOD in Trypanosoma cruzi epimastigote
Trypanosoma cruzi [26] = test: Inhibition of Fe-SOD in Trypanosoma cruzi epimastigote at 80 uM
Trypanosoma cruzi [27] = test: Decrease in pyruvate catabolites in epimastigote Trypanosoma cruzi at IC25 concentration after 96 hrs; assay type: functional
Trypanosoma cruzi [28] = test: Decrease in acetate catabolites in epimastigote Trypanosoma cruzi at IC25 concentration after 96 hrs; assay type: functional
Trypanosoma cruzi [29] = test: Decrease in L-alanine catabolites in epimastigote Trypanosoma cruzi at IC25 concentration after 96 hrs; assay type: functional
Trypanosoma cruzi [30] = test: Decrease in D-lactate catabolites in epimastigote Trypanosoma cruzi at IC25 concentration after 96 hrs; assay type: functional
Trypanosoma cruzi [31] = test: Trypanocidal activity against epimastigote Trypanosoma cruzi IRHOD/CO/2008/SN3 infected in african green monkey Vero cells assessed as decrease in rate of infection at IC25 concentration on day 10; assay type: functional
Mus musculus [32] = test: Toxicity in Trypanosoma cruzi IRHOD/CO/2008/SN3 infected in BALB/c mouse acute chagas disease model assessed as kidney marker uric acid level at 25 mg/kg, ip after 60 days immunosuppressed with cyclophosphamide monohydrate measured up to day 120 post infection […]; assay type: organism-based; set-up: dose 25 mg/kg, route intraperitoneal; conditions: in vivo, 1440 h
Mus musculus [33] = test: Toxicity in Trypanosoma cruzi IRHOD/CO/2008/SN3 infected in BALB/c mouse acute chagas disease model assessed as heart marker CK-MB level at 25 mg/kg, ip after 60 days immunosuppressed with cyclophosphamide monohydrate measured up to day 120 post infection […]; assay type: organism-based; set-up: dose 25 mg/kg, route intraperitoneal; conditions: in vivo, 1440 h
Trypanosoma cruzi [34] = test: Antiparasitic activity against trypomastigote form of Trypanosoma cruzi IRHOD/CO/2008/SN3 infected in BALB/c mouse acute chagas disease model assessed as parasite reduction in blood at 5 mg/kg, ip measured on day 40 post infection; assay type: functional; set-up: scale not given: the % may be the effect or the level left; conditions: route intraperitoneal
Trypanosoma cruzi [35] = test: as §1, with “5” for “25”; assay type: functional; conditions: route intraperitoneal
Leishmania donovani [36] = test: Antileishmanial activity against intracellular amastigote stage of Leishmania donovani; assay type: functional, organism-based
L6 = test: Cytotoxicity against rat L6 cells; assay type: cell-based
Plasmodium falciparum = test: Antiplasmodial activity against chloroquine-resistant Plasmodium falciparum 2/K1-strain cultured in human red blood cells assessed as infected cells after 72 hrs by malstat method; assay type: functional, organism-based; conditions: 2/K1, 72 h
[37] = Selectivity index, ratio of IC50 for human MRC5 cells to IC50 for Plasmodium falciparum 2/K 1-strain; assay type: toxicity, cell-based; conditions: read-out: Ratio IC50
Trypanosoma brucei = test: Antitrypanosomal activity against trypomastigote Trypanosoma brucei Squib-427 strain cultured in MRC-5 cells assessed as parasite growth after 7 days by beta-galactosidase assay; assay type: functional, organism-based; conditions: Squib-427, MRC5, 168 h
[38] = Selectivity index, ratio of IC50 for human MRC5 cells to IC50 for Trypanosoma brucei Squib-427; assay type: toxicity, cell-based; conditions: read-out: Ratio IC50

`CC(C)C1=CC(=O)C2=C(CC[C@H]3C(C)(C)CCC[C@]23C)C1=O` showed an IC50 (Leishmania donovani [1]) of 0.12 µM and an IC50 (Leishmania major) of 0.18 µM.
`COC(=O)[C@]1(C)CCC[C@]2(C)c3ccc(O)cc3CC[C@@H]12` gave an IC50 (Trypanosoma cruzi [2]) of 39.2 µM, an IC50 (Trypanosoma cruzi [3]) of 27.1 µM and an IC50 (Trypanosoma cruzi [4]) of 89.3 µM. For the same compound, the IC50 (Vero) was 474 µM, the selectivity ratio [5] was 12.1 and the selectivity ratio [6] was 17.5. For the same compound, the selectivity ratio [7] was 5.3, the Activity (Trypanosoma cruzi [8]) was 30% and the Activity (Trypanosoma cruzi [9]) was 2.3%. For the same compound, the Activity (Trypanosoma cruzi [10]) was 6.3%, the Activity (Trypanosoma cruzi [11]) was 0.5% and the Activity (Trypanosoma cruzi [12]) was 0.4%. It also gave an Activity (Trypanosoma cruzi [13]) of 41%, an inhibition in vivo at 25 mg/kg (Trypanosoma cruzi [14]) of 22% and an Activity (Trypanosoma cruzi [15]) of 48.1%. The Activity (Trypanosoma cruzi [16]) was 17%, the Activity (Mus musculus [17]) was less than 10% and the Activity (Mus musculus [18]) was less than 10%. For the same compound, the Activity (Mus musculus [19]) was less than 10%, the Activity (Mus musculus [20]) was less than 10% and the Activity (Mus musculus [21]) was less than 10%. The Activity (Mus musculus [22]) was less than 10%, the Activity (Trypanosoma cruzi [23]) was “inactive” and the IC50 [24] was 58.9 µM. For the same compound, the IC50 [25] was 43.9 µM and the inhibition (Trypanosoma cruzi [26]) was 100%.
For `CC(C)c1cc2c(cc1O)[C@@]1(C)CCCC(C)(C)[C@@H]1CC2=O` [SUGIOL], the IC50 (Trypanosoma cruzi [2]) was 33.1 µM, the IC50 (Trypanosoma cruzi [3]) was 24.6 µM and the IC50 (Vero) was 45.4 µM. For the same compound, the selectivity ratio [5] was 1.37 and the selectivity ratio [6] was 1.84.
In the case of `CC(C)c1cc2c(c(Br)c1O)[C@@]1(C)CCCC(C)(C)[C@@H]1CC2`, the IC50 (Trypanosoma cruzi [2]) is reported as 49.7 µM, the IC50 (Trypanosoma cruzi [3]) is reported as 41.9 µM and the IC50 (Vero) is reported as 184 µM. It also gave a selectivity ratio [5] of 3.69 and a selectivity ratio [6] of 4.38.
In the case of `CC(C)c1cc2c(cc1O)[C@@]1(C)CCC[C@@](C)(CO)[C@@H]1[C@@H](O)C2=O`, the IC50 (Trypanosoma cruzi [2]) is reported as 18.7 µM, the IC50 (Trypanosoma cruzi [3]) is reported as 7.1 µM and the IC50 (Trypanosoma cruzi [4]) is reported as 59.9 µM. The IC50 (Vero) was 222 µM, the selectivity ratio [5] was 11.8 and the selectivity ratio [6] was 31.4. For the same compound, the selectivity ratio [7] was 3.7, the Activity (Trypanosoma cruzi [8]) was 17.1% and the “inhibition (INH)” value (Trypanosoma cruzi [27]) was 1.4%. The “inhibition (INH)” value (Trypanosoma cruzi [28]) was 0.3%, the “inhibition (INH)” value (Trypanosoma cruzi [29]) was 7.7% and the “inhibition (INH)” value (Trypanosoma cruzi [30]) was 6.4%. For the same compound, the “inhibition (INH)” value (Trypanosoma cruzi [31]) was 80%, the Activity (Trypanosoma cruzi [13]) was 38% and the inhibition in vivo at 25 mg/kg (Trypanosoma cruzi [14]) was 45%. For the same compound, the Activity (Trypanosoma cruzi [15]) was 9.8%, the Activity (Trypanosoma cruzi [16]) was 50% and the Activity (Mus musculus [17]) was less than 10%. The Activity (Mus musculus [32]) was less than 10%, the Activity (Mus musculus [33]) was less than 10% and the Activity (Mus musculus [18]) was greater than 10%. The Activity (Mus musculus [19]) was greater than 10%, the Activity (Mus musculus [20]) was less than 10% and the Activity (Mus musculus [21]) was less than 10%. The Activity (Mus musculus [22]) was less than 10%, the Activity (Trypanosoma cruzi [23]) was “Active” and the IC50 [24] was 56.6 µM. It also gave an IC50 [25] of 42.1 µM and an inhibition (Trypanosoma cruzi [26]) of 100%.
In the case of `COC1=C(C(C)C)C(=O)C2=C(O)C(=O)C3=C(C=CCC3(C)C)C2=C1`, the IC50 (Leishmania donovani [1]) is reported as 0.17 µM and the IC50 (Leishmania major) is reported as 0.29 µM.
`O=C(Cn1ccnc1[N+](=O)[O-])NCc1ccccc1` [BENZNIDAZOLE] showed an Activity (Trypanosoma cruzi [34]) of 16.7% and an Activity (Trypanosoma cruzi [35]) of 36%.
With `CC(=O)OC[C@@]1(C)CCC[C@]2(C)c3cc(O)c(C(C)C)cc3C(=O)C[C@@H]12` the IC50 (Trypanosoma cruzi [2]) was 26.3 µM, the IC50 (Trypanosoma cruzi [3]) was 25.5 µM and the IC50 (Vero) was 72.7 µM. The selectivity ratio [5] was 2.8 and the selectivity ratio [6] was 2.8.
In the case of `COc1c(C(C)C)cc2c(c1O)[C@@]1(C(=O)O)CCCC(C)(C)[C@@H]1CC2`, the IC50 (Leishmania donovani [36]) is reported as 0.75 µM and the IC50 (L6) is reported as 17.3 µM.
For `CC(C)C1=CC2=C[C@H](O)[C@H]3C(C)(C)C(O)C=C[C@]3(C)C2=C(O)C1=O` (some centres not stated), the IC50 (Plasmodium falciparum) was 9.2 µM, the selectivity ratio [37] was 10.4 and the IC50 (Trypanosoma brucei) was 1.9 µM. For the same compound, the selectivity ratio [38] was 50.5.
